Test results as given in ChEMBL document CHEMBL5661943, “ASAP - In vitro antiviral effect” (2024).

Experiments:
dengue virus type 2 [1] = test: Functional assay to measure dose dependent changes in antiviral-drug inhibitory efficacy against Dengue virus type 2 New Guinea C in Vero E6 miRFP670 cells (cotreated with P-gp inhibitor, CP100356). Cells are treated with antiviral candidates that are serially diluted, following infection, cells are fixed. EC50 is reported via analysis of fluorescence intensity using high-content imager. The …; format: organism-based, Chlorocebus sabaeus, Vero C1008; conditions: Dengue virus; for EC90: P-gp concentration 500 nM, P-gp inhibitor CP100356
Zika virus [2] = test: Functional CPE-based assay to measure dose dependent changes in antiviral-drug inhibitory efficacy against Zika virus MR766 in Vero E6 miRFP670 cells (cotreated with P-gp inhibitor, CP100356). Cells are treated with antiviral candidates that are serially diluted. EC50 is reported via analysis of MTS assay as a readout of CPE. The assay has been performed by KU Leuven.; format: organism-based, Chlorocebus sabaeus, Vero C1008; conditions: Zika virus, Vero C1008; for EC90: Baseline response 0 %, Maximum response 100 %, P-gp concentration 500 nM, P-gp inhibitor CP100356
dengue virus type 2 [3] = test: Functional immunofluorescence assay to measure dose dependent changes in antiviral-drug inhibitory efficacy against Dengue virus type 2 Thailand/16681/84 in Vero E6/TMPRSS2 cells (cotreated with P-gp inhibitor, Elacridar). Cells are treated with antiviral candidates that are serially diluted, following infection, cells are fixed. EC50 is reported via analysis of immunofluorescence staining. The assay has been performed by Icahn School of Medicine at Mount Sinai.; format: organism-based, Chlorocebus sabaeus, VeroE6/TMPRSS2; conditions: Dengue virus; for EC90: P-gp concentration 2 uM, P-gp inhibitor Elacidar
Zika virus [4] = test: EC50 is reported via analysis of immunofluorescence staining. The assay has been performed by Icahn School of Medicine at Mount Sinai.; format: functional, organism-based, Chlorocebus sabaeus, VeroE6/TMPRSS2; conditions: Zika virus; for EC90: P-gp concentration 2 uM, P-gp inhibitor Elacidar

## O=C(NC[C@H]1CCCO1)[C@H](Nc1ccc2c(c1)CNC2)c1cc(Cl)cc2[nH]ncc12
Dengue virus type 2 [1]; Vero C1008
  EC50: > 6.25 µM
Dengue virus type 2 [1]; Vero C1008, Maximum measured 107.029 %, Minimum measured 98.467 %
  EC90: > 6.25 µM
Zika virus [2]
  EC50: > 50 µM
Zika virus [2]; Hill slope 0.096, Maximum measured 37.493 %, Minimum measured 16.803 %, R squared 0.054
  EC90: > 50 µM
Dengue virus type 2 [3]; VeroE6/TMPRSS2
  EC50: > 16.7 µM
Dengue virus type 2 [3]; VeroE6/TMPRSS2, Maximum measured 188.503 %, Minimum measured 79.522 %
  EC90: > 16.7 µM
Zika virus [4]; VeroE6/TMPRSS2
  EC50: 0.309 µM
Zika virus [4]; VeroE6/TMPRSS2, Baseline response 0 %, Hill slope -0.364, Maximum measured 91.96 %, Maximum response 100 %, Minimum measured 21.463 %, R squared 0.587
  EC90: > 16.7 µM

## Cn1cc2cc(Cl)cc(C(=O)Nc3ccc4c(c3)CNC4)c2n1
Dengue virus type 2 [1]; Vero C1008
  EC50: 0.704 µM
Dengue virus type 2 [1]; Vero C1008, Baseline response 0 %, Hill slope 0.764, Maximum measured 122.857 %, Maximum response 100 %, Minimum measured 34.33 %, R squared 0.405
  EC90: < 0.391 µM
Zika virus [2]
  EC50: 0.514 µM
Zika virus [2]; Hill slope 4.196, Maximum measured 85.26 %, Minimum measured 23.993 %, R squared 0.942
  EC90: > 0.781 µM
Dengue virus type 2 [3]; VeroE6/TMPRSS2
  EC50: > 5.56 µM
Dengue virus type 2 [3]; VeroE6/TMPRSS2, Maximum measured 98.349 %, Minimum measured 47.733 %
  EC90: > 5.56 µM
Zika virus [4]; VeroE6/TMPRSS2
  EC50: 0.643 µM
Zika virus [4]; VeroE6/TMPRSS2, Baseline response 0 %, Hill slope -0.814, Maximum measured 136.159 %, Maximum response 100 %, Minimum measured 33.863 %, R squared 0.555
  EC90: > 5.56 µM

## O=C(Nc1ccc2c(c1)CNC2)c1cc(C(F)(F)F)cc2[nH]ccc12
Dengue virus type 2 [1]; Vero C1008
  EC50: > 50 µM
Dengue virus type 2 [1]; Vero C1008, Baseline response 0 %, Hill slope -0.556, Maximum measured 107.588 %, Maximum response 100 %, Minimum measured 39.301 %, R squared 0.196
  EC90: > 50 µM
Zika virus [2]
  EC50: 45.6 µM
Zika virus [2]; Hill slope 3.148, Maximum measured 56.87 %, Minimum measured -2.102 %, R squared 0.945
  EC90: > 50 µM
Dengue virus type 2 [3]; VeroE6/TMPRSS2
  EC50: > 16.7 µM
Dengue virus type 2 [3]; VeroE6/TMPRSS2, Baseline response 0 %, Hill slope -15.878, Maximum measured 193.651 %, Maximum response 148.635 %, Minimum measured 63.423 %, R squared 0.446
  EC90: > 16.7 µM
Zika virus [4]; VeroE6/TMPRSS2
  EC50: > 50 µM
Zika virus [4]; VeroE6/TMPRSS2, Maximum measured 116.047 %, Minimum measured 72.993 %
  EC90: > 50 µM

## Cn1cc(CCc2nc3c(C(=O)Nc4ccc5c(c4)CNC5)cc(Cl)cc3[nH]2)cn1
Dengue virus type 2 [1]; Vero C1008
  EC50: > 50 µM
Dengue virus type 2 [1]; Vero C1008, Maximum measured 132.966 %, Minimum measured 89.816 %
  EC90: > 50 µM
Zika virus [2]
  EC50: > 50 µM
Zika virus [2]; Hill slope 0.081, Maximum measured 22.254 %, Minimum measured 2.34 %, R squared 0.041
  EC90: > 50 µM
Dengue virus type 2 [3]; VeroE6/TMPRSS2
  EC50: > 16.7 µM
Dengue virus type 2 [3]; VeroE6/TMPRSS2, Baseline response 0 %, Hill slope -0.053, Maximum measured 79.122 %, Maximum response 100 %, Minimum measured 42.376 %, R squared 0.043
  EC90: > 16.7 µM
Zika virus [4]; VeroE6/TMPRSS2
  EC50: > 16.7 µM
Zika virus [4]; VeroE6/TMPRSS2, Maximum measured 69.995 %, Minimum measured 22.891 %
  EC90: > 16.7 µM

## CNC(=O)[C@H](Nc1ccc2c(c1)CNC2)c1cc(Cl)cc2[nH]ncc12
Dengue virus type 2 [1]; Vero C1008
  EC50: > 50 µM
Dengue virus type 2 [1]; Vero C1008, Baseline response 0 %, Hill slope 0.363, Maximum measured 102.287 %, Maximum response 100 %, Minimum measured 71.268 %, R squared 0.122
  EC90: > 50 µM
Zika virus [2]
  EC50: > 50 µM
Zika virus [2]; Hill slope 0.1, Maximum measured 6.056 %, Minimum measured 1.325 %, R squared 0.024
  EC90: > 50 µM
Dengue virus type 2 [3]; VeroE6/TMPRSS2
  EC50: > 50 µM
Dengue virus type 2 [3]; VeroE6/TMPRSS2, Maximum measured 241.837 %, Minimum measured 83.65 %
  EC90: > 50 µM
Zika virus [4]; VeroE6/TMPRSS2
  EC50: > 50 µM
Zika virus [4]; VeroE6/TMPRSS2, Maximum measured 122.029 %, Minimum measured 43.627 %
  EC90: > 50 µM
Zika virus [4]; VeroE6/TMPRSS2, Baseline response 0 %, Hill slope 0.082, Maximum measured 101.866 %, Maximum response 100 %, Minimum measured 51.114 %, R squared 0.025
  EC90: > 50 µM
